Source: patent US11752117B2, “Methods and compositions for diagnosing and treating glaucoma” (priority 2017, dated 2023)
“And” between values parts separate entries of the source, which are not always exact repeats. Equal entries are not always repeated. Values belong to the compound of their own block, whether it stands above or below them.

Key:
[1] = tested on: human trabecular meshwork cell; test: 86Rb efflux from human trabecular meshwork cells; type: cell-based
From the text: FIG. 3 depicts, in accordance with embodiments herein, effect of glybenclamide on the efflux of ^86Rb from human trabecular meshwork cell.
FIG. 4 depicts, in accordance with embodiments herein, effect of chlorpromazine on the efflux of ^86Rb from human trabecular meshwork cell.

[2] = tested on: sulfonylurea receptor in trabecular meshwork cells; test: 3H-glibenclamide binding and displacement, bovine trabecular meshwork cells
Method: FIG. 1 depicts, in accordance with embodiments herein, binding of ^3H-glibenclamide to bovine trabecular meshwork cells (2.5×10^5 per 0.5 ml of reaction mixture) at various concentrations of ligand. Red: non-specific binding; green: specific binding. Shown is mean±SD.
(§1) FIG. 2 depicts, in accordance with embodiments herein, displacement of ^3H-glibenclamide bound to trabecular meshwork cells (green) and RIN-m5F cells (red) by tolbutamide.
Non-specific binding was determined as the residual binding in the presence of 20 μM non-labeled glibenclamide. After 2 hrs incubation, ^3H-bound glibenclamide was separated from free ^3H-glibenclamide on Whatman GF/F filters soaked in incubation buffer. Specific binding as calculated as the difference between binding in the absence and presence of non-labeled […] glibenclamide (FIG. 1).

rabbits = test: Effect of KATP channel blockers and openers on intraocular pressure in rabbits; type: in vivo; conditions: 800 μg of blockers, within 1 hour
From the text: Tolbutamide, a well-known and world-wide clinically approved drug to treat Type II diabetes, was used as the prototype blocker of the KATP channel. […] Tolbutamide solution decreased IOP not only in glaucomatous patients, but also in patients with elevated IOP after cataract surgery.

[3] = tested on: ocular hypertensive patient; test: Fluorophotometry of aqueous humor inflow and outflow facility; type: in vivo, human
Method: Thus, they investigated whether one drop of […] tolbutamide would affect aqueous dynamics using fluorophotometry to measure aqueous production and outflow.
Fluorophotometry. To define the mechanism of action of tolbutamide, measurements of aqueous dynamics were done on patient 2 (See FIG. 6). For this study TOP and rate of aqueous formation were measured at 9:00 A.M. The patient was asked to apply one drop of drug to the right eye at 9:15 A.M. and one at 10:00 P.M. for 3 days. On the morning of the fourth day TOP and rate of aqueous formation were again measured.
Facility of Outflow (C) was calculated after Goldman:
[formula] where IOPt is the intraocular pressure in mmHg at the time the rate of inflow is measured. Episcleral pressure for this patient was estimated at 9 mmHg.

glaucoma patients = test: Extended twice-daily 0.4% tolbutamide treatment, IOP of glaucoma patients; type: in vivo, human
Method: FIG. 5 depicts, in accordance with embodiments herein, long-term effect of 0.4% tolbutamide treatment on IOP of a human subject. […] The bottles were color-coded and the patient was not aware of which bottle contained the drug and which contained the vehicle. The patient and the technician measuring the patient's IOP was not aware of which bottle contained the drug and which contained the vehicle
(§2) On days 1 through 5, IOP was measured at 8:00 A.M., 1 drop of 0.4% Tolbutamide suspended in buffered PBS (pH 6.7) was instilled to the right eye and IOP measured at the indicated times. A second drop was administered at 10:00 PM. All measurements and drug administrations were done in the hospital. The bottles were color-coded and the patient was not aware of which bottle contained the drug and which contained the vehicle. […]
b. Effect of 0.4% tolbutamide on human subjects for an extended time. To determine whether longer-term treatment with tolbutamide lowered TOP without any significant side effects, […] patient was treated with one drop of 0.4% tolbutamide twice daily (FIGS. 5-7) as shown in the figures. Vials containing drug and vehicle were color-coded by the manufacturing facility; the patient, the nurse and the investigator were not aware which vial contained the drug and which vial contained the vehicle.
as §2, with “hospital, since” for “hospital. The bottles were color-coded and”, “admitted for an unrelated condition.” for “not aware of which bottle contained the drug and which contained the vehicle.”

patients = test: Adverse ocular effects of tolbutamide eye drops
From the text: Specifically, patients were monitored for discomfort, ocular pain, tearing, photophobia, erythema, swelling, discharge and scaling, palpebral conjunctival inflammation, bulbar conjunctival inflammation; limbal inflammation, corneal epithelial changes and focal stromal infiltrates. Symptoms were classified as 0=normal; 1=mild; 2=moderate; and 3=severe.

[4] = tested on: patients with elevated IOP; test: Effect of one drop of 0.4% tolbutamide on IOP in human subjects; type: in vivo; conditions: for effect on IOP: glaucomatous patients and patients with elevated IOP after cataract surgery (lens extraction)
Method: a. Effect of 1 drop of 0.4% tolbutamide. Three patients with elevated TOP, due to exfoliative glaucoma, to POAG and to the increase in TOP that occurs in some patients following lens extraction, were treated with one drop of 0.4% tolbutamide solution. TOP was measured at “0” time and at one hour intervals for 5 hours (when possible) by a nurse while the patient was in the hospital.

[5] = tested on: normal cynomologus monkeys; test: Effect of tolbutamide on IOP of normal cynomologus monkeys; type: in vivo; conditions: for IOP 1 hour post-treatment OD(treated): ketamine anesthesia
Method: Effect of Tolbutamide on TOP of Normal Cynomologus Monkeys: Formulations of the KA channel inhibitor tolbutamidewere tested as a suspension and as a solution for its ability to lower intraocular pressure in normal cynomologus monkeys. For the suspension, 0.4% tolbutamide was prepared in NaCl/borate buffer (0.8 mg NaCl, 1.0 mg boric acid, pH 7.2, water to 1 ml; for the solution, 0.4% tolbutamide was solubilized in 0.25 M NaOH and added to 0.4% hypromellose (HPMC) and the pH adjusted to 6.7. Tonicity was adjusted to 300 mOSm with NaCl and preserved with 0.001% thimerosal. The suspension and solution were tested as follows: Monkeys were anesthetized with ketamine hydrochloride and the baseline IOP determined. One drop of drug was administered to the right eye and the IOP determined 1 hour later, while the animals were still under anesthesia; the left eye served as a control. Two animals for each treatment were used. The decrease in IOP in the untreated eye is the result of anesthesia.

[6] = target: T1, sulfonylurea receptor of RIN-m5F cells (Rattus norvegicus, UniProt Q09429); test: 3H-glibenclamide displacement, RIN-m5F cells; type: binding; conditions: compared with bovine TM cells
T1 construct: displacement of ^3H-glibenclamide by tolbutamide in bovine trabecular meshwork cells and RIN-m5F cells; host or cells: RIN-m5F rat insulinoma cells
From the text: as §1

[7] = after 3 days, one drop of 0.5% solution to the eye twice daily
[8] = Patient 2, 0.4% in PBS pH 6.7 twice daily, Day 1 6:30 PM
[9] = Patient 2, 0.4% in PBS pH 6.7 twice daily, Day 2 4:00 PM
[10] = Patient 2, 0.4% in PBS pH 6.7 twice daily, Day 2 8:00 AM
[11] = Patient 2, 0.4% in PBS pH 6.7 twice daily, Day 2 8:00 PM
[12] = Patient 2, 0.4% in PBS pH 6.7 twice daily, Day 3 4:00 PM
[13] = Patient 2, 0.4% in PBS pH 6.7 twice daily, Day 3 8:00 AM
[14] = Patient 2, 0.4% in PBS pH 6.7 twice daily, Day 3 8:00 PM
[15] = Patient 2, 0.4% in PBS pH 6.7 twice daily, Day 4 4:00 PM
[16] = Patient 2, 0.4% in PBS pH 6.7 twice daily, Day 4 8:00 AM
[17] = Patient 2, 0.4% in PBS pH 6.7 twice daily, Day 4 8:00 PM
[18] = Patient 2, 0.4% in PBS pH 6.7 twice daily, Day 5 2:00 PM
[19] = Patient 2, 0.4% in PBS pH 6.7 twice daily, Day 5 8:00 AM

T1 sequence (Q09429 whole entry): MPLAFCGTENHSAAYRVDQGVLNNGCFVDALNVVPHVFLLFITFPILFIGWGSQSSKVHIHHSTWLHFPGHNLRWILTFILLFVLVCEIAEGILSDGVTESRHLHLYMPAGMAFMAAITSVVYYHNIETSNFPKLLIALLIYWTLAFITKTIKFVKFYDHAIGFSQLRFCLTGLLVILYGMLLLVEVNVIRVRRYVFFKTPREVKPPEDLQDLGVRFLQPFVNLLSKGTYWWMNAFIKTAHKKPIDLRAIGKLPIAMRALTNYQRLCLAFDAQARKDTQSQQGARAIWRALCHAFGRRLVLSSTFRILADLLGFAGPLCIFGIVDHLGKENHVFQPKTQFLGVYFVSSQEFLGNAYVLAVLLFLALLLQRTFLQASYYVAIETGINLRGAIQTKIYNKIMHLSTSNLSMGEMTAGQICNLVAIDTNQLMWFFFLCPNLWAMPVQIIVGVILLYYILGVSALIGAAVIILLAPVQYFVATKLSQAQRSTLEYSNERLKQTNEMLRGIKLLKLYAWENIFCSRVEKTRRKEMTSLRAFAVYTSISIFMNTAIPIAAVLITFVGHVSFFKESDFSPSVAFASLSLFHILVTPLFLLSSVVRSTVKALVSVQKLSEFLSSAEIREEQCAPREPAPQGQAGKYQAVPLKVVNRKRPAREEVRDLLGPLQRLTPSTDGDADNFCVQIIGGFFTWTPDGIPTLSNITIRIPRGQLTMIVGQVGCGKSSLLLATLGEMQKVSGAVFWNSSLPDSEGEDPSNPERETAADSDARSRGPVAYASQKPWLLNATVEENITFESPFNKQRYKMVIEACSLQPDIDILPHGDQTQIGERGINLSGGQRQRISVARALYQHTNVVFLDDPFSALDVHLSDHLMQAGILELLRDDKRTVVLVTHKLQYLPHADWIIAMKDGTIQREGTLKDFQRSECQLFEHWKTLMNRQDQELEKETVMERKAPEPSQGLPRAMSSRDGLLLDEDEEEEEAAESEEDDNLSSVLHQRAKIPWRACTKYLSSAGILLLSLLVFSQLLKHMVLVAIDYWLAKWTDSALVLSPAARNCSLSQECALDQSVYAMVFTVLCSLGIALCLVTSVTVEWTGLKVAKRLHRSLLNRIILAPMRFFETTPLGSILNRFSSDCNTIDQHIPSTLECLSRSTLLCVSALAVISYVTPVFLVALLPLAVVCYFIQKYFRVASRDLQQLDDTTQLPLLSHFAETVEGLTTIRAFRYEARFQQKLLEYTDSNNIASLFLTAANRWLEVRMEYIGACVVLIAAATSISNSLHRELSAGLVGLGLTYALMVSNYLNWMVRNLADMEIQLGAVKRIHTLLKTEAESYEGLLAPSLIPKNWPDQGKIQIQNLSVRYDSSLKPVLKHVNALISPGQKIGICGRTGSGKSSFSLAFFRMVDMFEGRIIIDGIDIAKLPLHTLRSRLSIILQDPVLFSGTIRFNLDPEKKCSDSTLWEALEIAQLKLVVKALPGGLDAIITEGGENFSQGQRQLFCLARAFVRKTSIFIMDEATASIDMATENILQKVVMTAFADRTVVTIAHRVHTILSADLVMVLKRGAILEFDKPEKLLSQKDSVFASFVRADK
T1 sequence (P70673 whole entry partner): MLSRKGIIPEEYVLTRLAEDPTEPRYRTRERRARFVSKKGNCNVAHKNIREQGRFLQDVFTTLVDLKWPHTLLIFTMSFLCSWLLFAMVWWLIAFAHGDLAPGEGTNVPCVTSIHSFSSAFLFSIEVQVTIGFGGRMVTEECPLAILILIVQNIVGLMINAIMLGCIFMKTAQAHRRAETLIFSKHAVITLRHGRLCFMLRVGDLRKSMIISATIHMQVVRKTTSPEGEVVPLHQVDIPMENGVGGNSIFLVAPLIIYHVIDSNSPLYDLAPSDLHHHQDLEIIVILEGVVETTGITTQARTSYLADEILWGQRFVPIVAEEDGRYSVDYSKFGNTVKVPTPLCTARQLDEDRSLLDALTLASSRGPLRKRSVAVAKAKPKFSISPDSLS

SMILES: CN(C)CCCN1c2ccccc2Sc2ccc(Cl)cc21 [Chlorpromazine, chlorpromazine]
- potassium efflux from trabecular meshwork cells as indicated by 86Rubidium efflux [1]: inhibit potassium efflux
- inhibition at 1 µM ([1]; Homo sapiens, at 1 μM, dose dependent): 20%

SMILES: COc1ccc(Cl)cc1C(=O)NCCc1ccc(S(=O)(=O)NC(=O)NC2CCCCC2)cc1 [Glybenclamide, glibenclamide]
- binding of 3H-glibenclamide to trabecular meshwork cells ([2]; on ice, 2 hrs incubation): have a receptor for glybenclamide
- effect on intraocular pressure (rabbits): decreased IOP
- potassium efflux from trabecular meshwork cells as indicated by 86Rubidium efflux [1]: inhibit potassium efflux
- inhibition at 0.01 µM ([1]; Homo sapiens, at 10 nM, dose dependent): 50%

- kinetics of displacement of 3H-glibenclamide by tolbutamide [6]: same kinetics
SMILES: CCCCNC(=O)NS(=O)(=O)c1ccc(C)cc1 [Tolbutamide, tolbutamide]
- increase of aqueous production ([3]; 0.4%): 150%
- increase of outflow via the trabecular meshwork-Schlemm's canal complex ([3]; 0.4%): 350%
- net outflow increase ([3]; 0.4%): 200%
- increase of aqueous formation [3, 7]: approximately 150%
- increase of outflow via the trabecular meshwork/Schlemm's canal [3, 7]: 350%
- Inflow OD Post-treatment ([3]; patient 2, one drop right eye twice daily for 3 days, morning of fourth day, Pre-Treatment 1.9): 3.0 µL/min
- IOP OD Post-treatment ([3]; patient 2, one drop right eye twice daily for 3 days, morning of fourth day, Pre-Treatment 22): 15 mmHg
- Outflow Facility OD Post-treatment ([3]; patient 2, one drop right eye twice daily for 3 days, calculated after Goldman, episcleral pressure 9 mmHg, Pre-Treatment 0.146): 0.50 μl/min/mmHg
- long-term effect on IOP (glaucoma patients; Patient 1 (high IOP, no visual field loss), 0.4% suspended in PBS pH 6.7, right eye twice daily, days 1-6, first day IOP remained high): decreased significantly during the next 5 days
- IOP OD (treated) (glaucoma patients; Patient 2 (refractory to Timolol), 0.4% in PBS pH 6.7 twice daily, Day 1 6:00 PM, Day 1 4:00 PM value 31): 21 mm Hg
- IOP OD (treated) % Change (glaucoma patients; Patient 2, 0.4% in PBS pH 6.7 twice daily, Day 1 6:00 PM): −32%
- IOP OD (treated) (glaucoma patients; [8]): 18 mm Hg
- IOP OD (treated) % Change (glaucoma patients; [8]): −42%
- IOP OD (treated) (glaucoma patients; [9]): 27 mm Hg
- IOP OD (treated) % Change (glaucoma patients; [9]): −13%
- IOP OD (treated) (glaucoma patients; [10]): 16 mm Hg
- IOP OD (treated) % Change (glaucoma patients; [10]): −48%
- IOP OD (treated) (glaucoma patients; [11]): 28 mm Hg
- IOP OD (treated) % Change (glaucoma patients; [11]): −10%
- IOP OD (treated) (glaucoma patients; [12]): 22 mm Hg
- IOP OD (treated) % Change (glaucoma patients; [12]): −29%
- IOP OD (treated) (glaucoma patients; [13]): 20 mm Hg
- IOP OD (treated) % Change (glaucoma patients; [13]): −35%
- IOP OD (treated) (glaucoma patients; [14]): 21 mm Hg
- IOP OD (treated) % Change (glaucoma patients; [14]): −32%
- IOP OD (treated) (glaucoma patients; [15]): 22 mm Hg
- IOP OD (treated) % Change (glaucoma patients; [15]): −29%
- IOP OD (treated) (glaucoma patients; [16]): 18 mm Hg
- IOP OD (treated) % Change (glaucoma patients; [16]): −42%
- IOP OD (treated) (glaucoma patients; [17]): 24 mm Hg
- IOP OD (treated) % Change (glaucoma patients; [17]): −23%
- IOP OD (treated) (glaucoma patients; [18]): 23 mm Hg
- IOP OD (treated) % Change (glaucoma patients; [18]): −26%
- IOP OD (treated) (glaucoma patients; [19]): 17 mm Hg
- IOP OD (treated) % Change (glaucoma patients; [19]): −45%
- effect on IOP (glaucoma patients; glaucoma patients, 1 drop (250 μg) twice daily, 6 days of the study): decreased IOP
- kinetics of displacement of 3H-glibenclamide by tolbutamide ([2]; bovine TM cells, compared with RIN-m5F cells): same kinetics
- effect on intraocular pressure (rabbits): decreased IOP
- severe symptoms of ocular toxicity (patients; all patients, any time during the study): free of severe symptoms
- symptoms of ocular toxicity, classification (patients; drops to the eye, all cases): 0-1
- IOP spike that occurs following cataract surgery ([4]; 0.4%): prevents the IOP spike
- lowering of intraocular pressure ([4]; 0.4%, primary open angle glaucoma and exfoliative glaucoma patients): 25-50%
- IOP ([4]; Patient 1 Exfoliative Glaucoma of OD, OD, 2 hrs after one drop 0.4% solution, pre-treatment 48): 44 mm of Hg
- IOP ([4]; Patient 1 Exfoliative Glaucoma of OD, OD, 3 hrs after one drop 0.4% solution, pre-treatment 48): 32 mm of Hg
- IOP ([4]; Patient 1 Exfoliative Glaucoma of OD, OD, 4 hrs after one drop 0.4% solution, pre-treatment 48): 30 mm of Hg
- IOP ([4]; Patient 1 Exfoliative Glaucoma of OD, OD, 5 hrs after one drop 0.4% solution, pre-treatment 48): 30 mm of Hg
- IOP ([4]; Patient 1 Exfoliative Glaucoma of OD, OS, 2 hrs, pre-treatment 20): 18 mm of Hg
- IOP ([4]; Patient 1 Exfoliative Glaucoma of OD, OS, 3 hrs, pre-treatment 20): 14 mm of Hg
- IOP ([4]; Patient 1 Exfoliative Glaucoma of OD, OS, 4 hrs, pre-treatment 20): 14 mm of Hg
- IOP ([4]; Patient 1 Exfoliative Glaucoma of OD, OS, 5 hrs, pre-treatment 20): 14 mm of Hg
- IOP ([4]; Patient 2 Primary Open Angle Glaucoma, OD, 1 hr after one drop 0.4% solution, pre-treatment 34): 30 mm of Hg
- IOP ([4]; Patient 2 Primary Open Angle Glaucoma, OD, 3 hrs, pre-treatment 34): 26 mm of Hg
- IOP ([4]; Patient 2 Primary Open Angle Glaucoma, OD, 4 hrs, pre-treatment 34): 22 mm of Hg
- IOP ([4]; Patient 2 Primary Open Angle Glaucoma, OD, 5 hrs, pre-treatment 34): 22 mm of Hg
- IOP ([4]; Patient 2 Primary Open Angle Glaucoma, OS, 1 hr, pre-treatment 32): 27 mm of Hg
- IOP ([4]; Patient 2 Primary Open Angle Glaucoma, OS, 3 hrs, pre-treatment 32): 22 mm of Hg
- IOP ([4]; Patient 2 Primary Open Angle Glaucoma, OS, 4 hrs, pre-treatment 32): 20 mm of Hg
- IOP ([4]; Patient 2 Primary Open Angle Glaucoma, OS, 5 hrs, pre-treatment 32): 20 mm of Hg
- IOP ([4]; Patient 3 IOP Spike after Lens Extraction, OD, 2 hrs after one drop 0.4% solution, pre-treatment 30): 20 mm of Hg
- effect on IOP [4]: decreased IOP
- effect on IOP ([4]; listed as tolbutamide): decrease TOP significantly
- IOP 1 hour post-treatment OD(treated) ([5]; 0.4% solution in 0.4% HPMC pH 6.7, one drop right eye): 22 mmHg and 17 mmHg
- IOP 1 hour post-treatment OD(treated) ([5]; 0.4% suspension in NaCl/borate buffer, one drop right eye): 15 mmHg and 18 mmHg
- effect on IOP ([5]; cynomolgous monkeys, 500 μg, short-term 1-hour studies): decreased TOP

SMILES: CCCNC(=O)NS(=O)(=O)c1ccc(Cl)cc1 [chlorpropanamide]
- effect on intraocular pressure (rabbits): decreased IOP

SMILES: CC1=NS(=O)(=O)c2cc(Cl)ccc2N1 [diazoxide]
- effect on intraocular pressure (rabbits): increased IOP significantly

SMILES: Cc1ccc(S(=O)(=O)NC(=O)NN2CCCCCC2)cc1 [tolazamide]
- effect on intraocular pressure (rabbits): decreased IOP
